# Laboratory results as given in patent publication US20160089464A1, “MALODOR REDUCTION COMPOSITIONS” (The Procter & Gamble Company, priority 2014, published 2016).
# Assay: Comment Code material properties: vapor pressure, ClogP, probability of ingredient color instability, odor detection threshold, melamine formaldehyde PMC headspace response ratio and leakage, liquid dish neat product liquid-air partition coefficient
# Type: physicochemical
# [1] = Table 1 materials, each letter of the code is one property class (vapor pressure, ClogP, color instability, odor detection threshold, PMC headspace ratio, PMC leakage, liquid dish liquid-air partition coefficient)
# [2] = cell strings several class symbols together, each letter is one property class of L1
# [3] = letter codes A-L: vapor pressure, ClogP, probability of ingredient color instability, odor detection threshold, PMC headspace response ratio, PMC leakage, liquid dish liquid-air partition coefficient, Table 1 materials with at least one MORV from 1 to 5
SMILES,Comment Code [1],Comment Code [2],Comment Code [3]
CCCCCCCCCCC=O [Material 1102],BDHJK,–,–
CCC=C(C)C(O)CCCCC (stereo not drawn) [Material 1104],BDEFHIJK,–,–
C=C(C)[C@@H]1CCC2=CCC[C@@H](C)[C@]2(C)C1 [Material 1105],BDEFHJK,–,–
C[C@@H]1CCC=C2CC[C@@H](C(C)(C)O)C[C@]21C [Material 1107],DEFHJK,DEFHJK,–
COc1cc(C=O)ccc1OC(=O)C(C)C [Material 1111],CHJ,–,–
CC=Cc1ccc(OCC)c(O)c1 [Material 1112],–,CEFHK,–
COCc1ccc(O)c(OC)c1 [Material 1113],–,–,CGIK
CCCCCC1(C)CCC(C)(C)C1=O (stereo not drawn) [Material 1115],–,BDFGIJKL,–
CC(C=O)=CCC1C(C)=CCCC1(C)C (stereo not drawn) [Material 1116],–,–,BDFHJK
COC(=O)c1c(C)cc(O)c(C)c1O [Material 1117],–,–,CGIJ
COc1ccc(C=O)cc1OC [Material 1118],–,BCGIK,–
CC1=CC(=O)[C@@H]2C[C@H]1C2(C)C [Material 1119],–,ACEFGIJKL,–
COC1C=CC2C3CCC(C3)C12 (stereo not drawn) [Material 1120],–,–,ACEFHJKL
COC(=O)c1ccccc1N=CC(C)Cc1ccc(C(C)(C)C)cc1 (stereo not drawn) [Material 1121],–,–,DFHJ
CC(C)(C)C1CCCCC1O (stereo not drawn) [Material 1122],–,ACGIJKL,–
CCC=CCCOC(=O)C(C)C [Material 1125],–,–,ADEFHJKL

SMILES,Comment Code [1],Comment Code [2],Comment Code [3]
CC1CC(C)(c2ccccc2)OC(C)O1 (stereo not drawn) [Material 1126],–,–,BCFHJK
CC(=O)C1=C(C)[C@@H]2C[C@@]3(C1)[C@H](C)CC[C@H]3C2(C)C [Material 1129],–,DHJK,DHJK
COC(=O)c1ccccc1/N=C\C1CCC(C)=CC1C (stereo not drawn) [Material 1131],–,DEFHJ,DEFHJ
CC(=O)OC(C)CC(C)(C)c1ccccc1 (stereo not drawn) [Material 1134],–,BDFHJK,–
C1CC2C3CC(C2C1)C1(CCCO1)C3 (stereo not drawn) [Material 1137],–,DEFGJKL,DEFGJKL
CC/C=C/CC/C=C\C#N [Material 1138],–,–,ACEFHKL
COC(=O)OC1CC/C=C\CCC1 (stereo not drawn) [Material 1139],–,–,BCHJKL
C[C@@H]1CC[C@H]2[C@@H]1[C@H]1[C@@H](CC[C@]2(C)O)C1(C)C [Material 1140],–,DEFHJK,DEFHJK
C=C(C)COCC/C=C\CC [Material 1141],–,ADEFHKL,–
Cc1cc2c(cc1C#N)C(C)(C)C(C)C(C)C2(C)C (stereo not drawn) [Material 1142],–,DHJ,DHJ
C[C@H]1[C@@H]2C[C@H](C[C@@]13C=CC(=O)CC3)C2(C)C [Material 1143],–,DEFHJK,DEFHJK
CC1(C)C2CCC3(C2)C1C1(CCC3(C)C)OCCO1 (stereo not drawn) [Material 1144],–,DEFHJK,DEFHJK
CC1(C)C2CCC3(C2)C1C1(CCC3(C)C)OCCO1 (stereo not drawn) [Material 1145],–,–,DEFHJK
COc1cc(CCC(C)=O)ccc1O [Material 1146],–,–,CEFGJ
CC1=CC2=C(C(C)C)CC[C@@H](C)[C@H]2CC1 [Material 1147],–,–,DEFHJKL
